Key:
[1] = Oral glucose tolerance test (OGTT) in normal rats: plasma glucose and plasma insulin; format: in vivo; conditions: for Plasma glucose 0 hr / Plasma insulin 0 hr / Plasma glucose 0.25 hr / Plasma insulin 0.25 hr / Plasma glucose 0.5 hr / Plasma insulin 0.5 hr / Plasma glucose 1 hr / Plasma insulin 1 hr / Plasma glucose 2 hr / Plasma insulin 2 hr / Plasma glucose 4 hr / Plasma insulin 4 hr / Plasma glucose ΔAUC 0-1 hr / Plasma insulin ΔAUC 0-1 hr: oral, KGT-1681 3 mg/kg, KGA-3235 0.03 mg/kg, Combo 3 and 0.03 mg/kg; for Effect on increase in plasma glucose after glucose loading: FIG. 1A; for Two-way ANOVA main effect in AUC0-1hr for plasma glucose: FIG. 1B; for Effect on plasma insulin: FIG. 2A
Description: Example 1. Combination treatment with mizagliflozin and remogliflozin. Combination treatment with KGT-1681 and KGA-3235 in normal rats. KGT-1681 was suspended in 0.1% methylcellulose (MC) and KGA-3235 was dissolved in distilled water (DW). Rats (9 weeks of age) were divided into the following four groups and treated as indicated: vehicle, 0.1% MC+DW; KGT, KGT-1681 (3 mg/kg, 5 mL/kg) plus DW; KGA, 0.1% MC plus KGA-3235 (0.03 mg/kg, 5 mL/kg); and Combo, KGT-1681 plus KGA-3235 (3 and 0.03 mg/kg, respectively). After 16 h fasting, the drug and glucose solution (400 g/L, 5 ml/kg) were orally administered to rats. Blood was obtained in heparinized and aprotinin-treated tubes from a tail vein at each sampling point. Plasma glucose concentration was determined using a Glucose CII-test Wako (Wako Pure Chemicals, Osaka, Japan). Plasma insulin was determined using an enzyme-linked immunosorbent assay kit (Morinaga Institute of Biological Science, Inc., Yokohama, Japan). The area under the curve (AUC)0-1 hr for plasma glucose and insulin were calculated from the plasma glucose and insulin concentrations during the OGTT (Table 1).

[2] = orally administered to rat, in comparison with no compound; cited from earlier work
[3] = pre-treatment before mixed meal, cited from earlier work

Row | Compound | Plasma glucose 0 hr [1] [mg/dL] | Plasma insulin 0 hr [1] [pg/mL] | Plasma glucose 0.25 hr [1] [mg/dL] | Plasma insulin 0.25 hr [1] [pg/mL] | Plasma glucose 0.5 hr [1] [mg/dL] | Plasma insulin 0.5 hr [1] [pg/mL] | Plasma glucose 1 hr [1] [mg/dL] | Plasma insulin 1 hr [1] [pg/mL] | Plasma glucose 2 hr [1] [mg/dL] | Plasma insulin 2 hr [1] [pg/mL] | Plasma glucose 4 hr [1] [mg/dL] | Plasma insulin 4 hr [1] [pg/mL] | Effect on increase in plasma glucose after glucose loading [1] | Two-way ANOVA main effect in AUC0-1hr for plasma glucose [1] | Effect on plasma insulin [1] | Plasma glucose ΔAUC 0-1 hr [1] [mg·h/dL] | Plasma insulin ΔAUC 0-1 hr [1] [pg·h/mL] | also measured
1 | Cc1cc(OCCCNCC(C)(C)C(N)=O)ccc1Cc1c(O[C@@H]2O[C@H](CO)[C@@H](O)[C@H](O)[C@H]2O)n[nH]c1C(C)C [KGA-3235, 3-(3-{4-[3-(β-D-glucopyranosyloxy)-5-isopropyl-1H-pyrazol-4-ylmethyl-]-3-methylphenoxy}propylamino)-2,2-dimethylpropionamide] | 92 ± 4 | 278 ± 25 | 147 ± 7 | 1197 ± 146 | 164 ± 5 | 1014 ± 131 | 169 ± 5 | 933 ± 111 | 136 ± 2 | 551 ± 98 | 80 ± 3 | 286 ± 39 | inhibited the increase in plasm glucose | significant main effect | decreased | 152 ± 4 | 948 ± 88 | 
2 | CCOC(=O)OC[C@H]1O[C@@H](Oc2nn(C(C)C)c(C)c2Cc2ccc(OC(C)C)cc2)[C@H](O)[C@@H](O)[C@@H]1O [KGT-1681, 5-methyl-4-[4-(1-methylethoxy)benzyl]-1-(1-methylethyl)-1H-pyrazol-3-yl 6-O-(ethoxycarbonyl)-β-D glucopyranoside] | 101 ± 3 | 380 ± 29 | 146 ± 5 | 1219 ± 183 | 163 ± 7 | 978 ± 182 | 168 ± 6 | 1187 ± 152 | 113 ± 5 | 425 ± 40 | 85 ± 2 | 338 ± 92 | inhibited the increase in plasm glucose | significant main effect | decreased | 152 ± 5 | 1020 ± 148 | 
3 | CCOC(=O)OC[C@H]1O[C@@H](Oc2ccccc2Cc2ccc(OC)cc2)[C@H](O)[C@@H](O)[C@@H]1O [2-(4-methoxybenzyl)phenyl 6-O-ethoxycarbonyl-β-D-glucopyranoside] |  |  |  |  |  |  |  |  |  |  |  |  |  |  |  |  |  | Increase of lipid accumulative amount in rat liver [2]: inhibited significantly
4 | OC[C@H]1O[C@@H](c2ccc(Cl)c(Cc3ccc(O[C@H]4CCOC4)cc3)c2)[C@H](O)[C@@H](O)[C@@H]1O [empagliflozin] |  |  |  |  |  |  |  |  |  |  |  |  |  |  |  |  |  | Severity of hypoglycemic events ([3]; versus placebo, p=0.037): significantly reduced; Nadir glucose values [3]: significantly increased; Events requiring rescue glucose administration ([3]; placebo 7 of 12 patients): two
